{"source": "paper PMC10305119", "about": "“Analogs of 6-Bromohypaphorine with Increased Agonist Potency for α7 Nicotinic Receptor as Anti-Inflammatory Analgesic Agents” (Marine Drugs, 2023)", "key": {"human α7 nAChR": {"target": "T1, human α7 nAChR (Homo sapiens, UniProt P36544)", "T1 construct": "expressed in transfected cells; host or cells: mouse neuroblastoma Neuro2a, transient co-transfection with Ric-3 (Ric3-pCMV6-XL5, OriGene) and the calcium sensor Case12", "T1 sequence (P36544 23-502)": "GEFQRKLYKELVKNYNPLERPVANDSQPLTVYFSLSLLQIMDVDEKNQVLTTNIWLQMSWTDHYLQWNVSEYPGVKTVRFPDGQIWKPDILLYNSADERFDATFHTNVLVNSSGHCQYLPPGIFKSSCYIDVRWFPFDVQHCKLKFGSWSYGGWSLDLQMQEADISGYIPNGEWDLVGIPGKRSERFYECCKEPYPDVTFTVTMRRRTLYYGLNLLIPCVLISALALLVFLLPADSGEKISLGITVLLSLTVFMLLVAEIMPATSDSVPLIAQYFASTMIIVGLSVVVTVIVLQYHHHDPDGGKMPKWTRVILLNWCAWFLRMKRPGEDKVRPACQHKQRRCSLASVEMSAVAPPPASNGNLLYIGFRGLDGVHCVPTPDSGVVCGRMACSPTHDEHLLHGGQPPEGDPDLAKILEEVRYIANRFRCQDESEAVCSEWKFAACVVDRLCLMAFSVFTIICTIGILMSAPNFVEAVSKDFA", "experiment": "Calcium fluorescence assay on α7 nAChR expressed in Neuro2a cells, in the presence of PNU120596", "assay_type": "cell-based", "details": "for α7 nAChR agonistic activity: at concentrations up to 1 mM, PNU 120,596 present", "protocol": "A panel of the synthesized compounds was tested to determine their activity on α7 nAChR by fluorescence detection of cytoplasmic calcium rise (Figure 2a).\nMouse neuroblastoma Neuro2a cells were purchased from the Russian collection of cell cultures (Institute of Cytology, Russian Academy of Sciences, Saint Petersburg, Russia). Cells were cultured in Dulbecco’s modified Eagle’s essential medium (Paneco, Moscow, Russia) supplemented with 10% fetal bovine serum (Sigma, St. Louis, MO, USA). The cells one day before transfection were subcultured and plated at a density of 10,000 cells per well on a 96-well plate. The next day, Neuro2a cells were transiently transfected with plasmids coding α7 nAChR (human α7 nAChR-pCEP4) or its mutants, the chaperone Ric-3 (Ric3-pCMV6-XL5, OriGene, USA) and a fluorescent calcium sensor Case12 (pCase12-cyto vector, Evrogen, Russia) in molar ratio 4:1:1. Lipofectamine transfection protocol (Invitrogen, Waltham, MA, USA) was performed as recommended by the manufacturer. Transfected cells were grown at 37 °C in a CO2 incubator for 48 h.\nCalcium […] assay was performed as described previously. Briefly, Transfected Neuro2a cells were grown on black 96-well plates (Corning, Somerville, MA, USA) at 37 °C in a CO2 incubator for 72 h, then growth medium was substituted with buffer containing 140 mM NaCl, 2 mM CaCl2, 2.8 mM KCl, 4 mM MgCl2, 20 mM HEPES, 10 mM glucose; pH 7.4.\nCells were incubated with the α7 nAChR positive allosteric modulator PNU120596 (10 μM, Tocris, Bristol, UK) for 20 min at room temperature before the addition of tested compounds. Plates were measured in microplate reader Hidex Sence (Hidex, Turku, Finland) using excitation at 485 nm and emission at 535 ± 10 nm. Fluorescence peak intensity in each well was expressed as a percentage of the maximal obtained response. Data files were analysed using Hidex Sence software (Hidex, Turku, Finland). Controls were run in the presence of 4 μM α-cobratoxin.\nThe R statistical programming environment “https://www.r-project.org/” (accessed on 16 June 2023) was used to analyze the results. Base R graphics and ggplot2 [54] graphical library were used for the data visualisation. Dose-response curves were fitted using “nlm” function and the following equation: response ~ (100/1 + (EC50/x)^n), where x denotes base 10 logarithm of ligand concentration in moles per liter (normalized to 1M) and n is the Hill coefficient. Libraries “rgl” “https://CRAN.R-project.org/package=rgl” (accessed on 16 May 2023) and “barplot3d” “https://cran.r-project.org/src/contrib/Archive/barplot3d/” (accessed on 16 May 2023) were used to generate the 3D bar chart shown on Figure 2b.\nFigure 2 In vitro activity determination of the synthesized compounds. […] The receptor activation was detected as an increase in fluorescent signal in cell cytoplasm by fluorescence microscopy or as total fluorescence of the well in 96-well plate reader setup. Normalized fluorescence amplitude was plotted against base 10 logarithm of mole per liter concentration of the tested agonist and EC50 values were than calculated using dose-response equation. […] Substitutions in the 6th position of the indole ring (designated as X) were halogens (green shadow), hydrogen bond acceptors (yellow shadow) or hydrogen bond donors (blue shadow). Carboxy group modifications were comprised by free acid (Q = OH), ethers (Q = OCH3, OC2H5), and amides (Q = NH2, NHCH3)."}, "CFA-induced inflammation": {"tested_on": "CFA-induced inflammation", "experiment": "CFA-induced inflammation test", "assay_type": "in vivo, ICR mice", "details": "mice; for analgesia in hot plate test: 2 h after injection, 53 °C, doses 0.1, 0.5, 1 mg/kg; for oedema (paw diameter): intramuscular 0.1, 0.5, 1 mg/kg, measured 6-48 h", "protocol": "Anti-inflammatory effect of two analogs of 6-substituted hypaphorine (6ND and 6ID) was tested in a model with subplantar administration of complete Freund’s adjuvant (CFA) in mice. CFA was injected once into the footpad to induce oedema in 24 h. Oedema was measured with an electronic calliper. Immediately after paw measurement, 6ND or 6ID was injected intramuscularly in doses 1, 0.5, and 0.1 mg/kg. Paws were measured at 6, 12, 24, and 48 h after administration of 6ND or 6ID. […] End points at 48 h of drug treatments at dose […] have been analyzed in terms of paw diameter normalized to the maximal oedemic levels in each group (Figure 6d).\nAdditionally, after 2 h following the drug injection, the analgesia test was conducted on the “hot plate” preheated to 53 °C. The time of withdrawal or licking of the affected paw was assessed for each animal.\nThe development of the inflammation and thermal hyperalgesia of the paw was induced by the injection of the oil/saline (1:1) CFA emulsion (Sigma-Aldrich, St. Louis, MO, lot # WH327536) into the subplantar surface of the hind paw of the ICR mice (20 µL/paw) 24 h before the measurement. Oedema was measured with an electronic calliper. Immediately after paw measurement, 6ND or 6ID were injected intramuscularly in doses: 1, 0.5, and 0.1 mg/kg. Paws were measured at 6, 12, 24, and 48 h after administration of 6ND or 6ID. After 2 h following the drug injection, the inflamed paw withdrawal or licking latencies to thermal stimulation were measured on a hot plate device (Hot Plate Analgesia Meter, Columbus Instruments) with a set temperature of 53 ± 0.1 °C and a cut-off time of 60 s."}}, "note": "Entries after “also recorded” stand apart in the source; their conditions may differ. Read-outs that look alike come from different tables or passages of the source."}
{"smiles": "COC(=O)[C@@H](Cc1c[nH]c2cc(I)ccc12)[N+](C)(C)C", "note": "[Compound 1, (D)-6-iodohypaphorine methyl ester]", "values": [{"measurement": "EC50", "setting": "human α7 nAChR", "result": 0.61, "unit": "µM"}, {"measurement": "analgesia in hot plate test", "setting": "CFA-induced inflammation; listed as 6ID", "result": "effective in the hot plate test at 0.5 as well as at 1 mg/kg; also recorded: at doses 0.5 and 1 mg/kg showed significant analgesia"}, {"measurement": "oedema (paw diameter)", "setting": "CFA-induced inflammation; listed as 6ID", "result": "significantly reduced by 6ID at 0.5 mg/kg starting from 12 h of treatment; also recorded: effective against oedema at doses 0.5 and 1 mg/kg"}]}
{"smiles": "COC(=O)C(Cc1c[nH]c2cc([N+](=O)[O-])ccc12)[N+](C)(C)C", "note": "(stereo not drawn) [Compound 5, methyl ester of 6-nitrohypaphorine]", "values": [{"measurement": "EC50", "setting": "human α7 nAChR; human α7 nAChR in Neuro2a cells, PNU120596 10 μM present, read-out: EC50", "result": 14, "unit": "µM"}, {"measurement": "analgesia in hot plate test", "setting": "CFA-induced inflammation; listed as 6ND", "result": "significant analgesia in hot plate test only at 0.1 mg/kg; also recorded: at a dose of 0.1 mg/kg has a pronounced analgesic effect, but higher doses did not show a difference from the control group"}]}
{"smiles": "C[N+](C)(C)[C@H](Cc1c[nH]c2ccccc12)C(=O)[O-]", "note": "[Compound 16, L-hypaphorine, reference compound]", "values": [{"measurement": "α7 nAChR agonistic activity", "setting": "human α7 nAChR; listed as Hypaphorine", "result": "did not show α7 nAChR agonistic activity"}, {"measurement": "α7 nAChR agonistic activity", "setting": "human α7 nAChR; listed as L-hypaphorine", "result": "failed to activate α7 nAChR"}, {"measurement": "EC50", "setting": "human α7 nAChR; human α7 nAChR in Neuro2a cells, PNU120596 10 μM present", "result": "no agonistic activity"}, {"measurement": "analgesia in hot plate test", "setting": "CFA-induced inflammation", "result": "analgesia in hot plate test at all tested doses from 0.1 to 1 mg/kg"}, {"measurement": "oedema reduction at 48 h end point, normalized to maximal oedema", "setting": "CFA-induced inflammation; dose 0.5, 48 h", "result": "markedly less effective reduction of oedema than 6ND and 6ID"}, {"measurement": "oedema (paw diameter)", "setting": "CFA-induced inflammation; listed as Hypaphorine", "result": "demonstrated anti-oedemic properties"}, {"measurement": "oedema (paw diameter)", "setting": "CFA-induced inflammation; listed as hypaphorine", "result": "significantly reduced edema in a concentration-dependent manner at doses 0.1–1 mg/kg"}]}
